# Experimental data reported in ChEMBL document CHEMBL1914411, “Synthesis of lipophilic dimeric C-7/C-7-linked ciprofloxacin and C-6/C-6-linked levofloxacin derivatives. Versatile in vitro biological evaluations of monomeric and dimeric fluoroquinolone derivatives as potential antitumor, antibacterial or antimycobacterial agents” (Eur J Med Chem, 2011).
# The source made the active and inactive calls.
# Legend:
# Staphylococcus aureus [1] = experiment: Antimicrobial activity against Staphylococcus aureus CIP 4.83 after 18 to 24 hrs by broth microdilution method; type: functional
# Enterococcus hirae = experiment: Antimicrobial activity against Enterococcus hirae CIP 5855 after 18 to 24 hrs by broth microdilution method; type: functional
# Pseudomonas aeruginosa = experiment: Antimicrobial activity against Pseudomonas aeruginosa CIP 82.118 after 18 to 24 hrs by broth microdilution method; type: functional
# Escherichia coli = experiment: Antimicrobial activity against Escherichia coli CIP 53126 after 18 to 24 hrs by broth microdilution method; type: functional
# [2] = test system: Mycobacterium tuberculosis; experiment: Antimycobacterial activity against Mycobacterium tuberculosis H37Rv after 6 days by MTT colorimetric microassay; type: functional, organism-based; conditions: 144 h
# [3] = test system: Mycobacterium tuberculosis; experiment: Antimycobacterial activity against Mycobacterium tuberculosis H37Rv assessed as growth inhibition at 10 uM after 6 days by MTT colorimetric microassay; type: functional; conditions: 144 h, read-out: GI
# [4] = test system: Mycobacterium tuberculosis; experiment: Antimycobacterial activity against Mycobacterium tuberculosis H37Rv assessed as growth inhibition at 1 uM after 6 days by MTT colorimetric microassay; type: functional; conditions: for inhibition of growth at 1 µM: 144 h, read-out: GI
# [5] = test system: Mycobacterium tuberculosis; experiment: Antimycobacterial activity against Mycobacterium tuberculosis H37Rv assessed as growth inhibition at 0.1 uM after 6 days by MTT colorimetric microassay; type: functional, organism-based
# Staphylococcus aureus [6] = experiment: Antimicrobial activity against methicillin-resistant Staphylococcus aureus ATCC 33591 after 18 to 24 hrs by broth microdilution method; type: functional
# Staphylococcus aureus [7] = experiment: Antimicrobial activity against multidrug-resistant Staphylococcus aureus isolate 1 after 18 to 24 hrs by broth microdilution method; type: functional
# Staphylococcus aureus [8] = experiment: Antimicrobial activity against multidrug-resistant Staphylococcus aureus isolate 2 after 18 to 24 hrs by broth microdilution method; type: functional
# Staphylococcus aureus [9] = experiment: Ratio of ciprofloxacin MIC to compound MIC for multidrug-resistant Staphylococcus aureus isolate 1; type: functional
# Staphylococcus aureus [10] = experiment: Ratio of ciprofloxacin MIC to compound MIC for multidrug-resistant Staphylococcus aureus isolate 2; type: functional
# [11] = Antiproliferative activity against human U373MG cells after 120 hrs by MTT asasy; type: functional, cell-based, U-373MG ATCC; conditions: U373 MG
# Staphylococcus aureus [12] = experiment: Antimicrobial activity against methicillin-resistant Staphylococcus aureus ATCC 33592 after 18 to 24 hrs by broth microdilution method; type: functional
SMILES,MBC (Staphylococcus aureus [1]) [µM],MIC (Staphylococcus aureus [1]) [µM],MBC (Enterococcus hirae) [µM],MIC (Enterococcus hirae) [µM],MBC (Pseudomonas aeruginosa) [µM],MIC (Pseudomonas aeruginosa) [µM],MBC (Escherichia coli) [µM],MIC (Escherichia coli) [µM],IC50 [2] [µM],MIC [2] [µM],inhibition of growth at 10 µM [3] [%],inhibition of growth at 1 µM [4] [%],growth inhibition (GI) [5],MBC (Staphylococcus aureus [6]) [µM],MIC (Staphylococcus aureus [6]) [µM],MBC (Staphylococcus aureus [7]) [µM],MIC (Staphylococcus aureus [7]) [µM],MBC (Staphylococcus aureus [8]) [µM],MIC (Staphylococcus aureus [8]) [µM],IC50 [11] [µM],also measured
CCCCCCCCCCCCCCCNC(=O)c1cn2c3c(c(N4CCN(C)CC4)c(F)cc3c1=O)OC[C@@H]2C,15.6,15.6,7.8,7.8,250,62.5,500,125,6.5,10,> 95,5,inactive,,,,,,,,
CCCCCCCCCC(=O)OCC(=O)N1CCN(c2cc3c(cc2F)c(=O)c(C(=O)O)cn3C2CC2)CC1,≤ 0.97,≤ 0.97,15.6,7.8,250,31.2,15.6,15.6,,,> 95,,inactive,0.48,0.24,15.6,7.8,15.6,7.8,,Ratio (Staphylococcus aureus [9]): 2; Ratio (Staphylococcus aureus [10]): 2
CCCCCCCCCCCCCC(=O)OCOC(=O)c1cn2c3c(c(N4CCN(C)CC4)c(F)cc3c1=O)OC[C@@H]2C,3.9,7.8,15.6,15.6,250,62.5,15.6,15.6,1.3,2.5,> 95,,inactive,,,,,,,,
CCCCCC(=O)OCC(=O)N1CCN(c2cc3c(cc2F)c(=O)c(C(=O)O)cn3C2CC2)CC1,≤ 0.24,≤ 0.03,≤ 0.97,≤ 0.97,250,62.5,31.2,31.2,,,> 95,,inactive,0.06,0.03,500,15.6,15.6,7.8,,Ratio (Staphylococcus aureus [9]): 2; Ratio (Staphylococcus aureus [10]): 2
CCCCCCCCCCCC(=O)OCOC(=O)c1cn2c3c(c(N4CCN(C)CC4)c(F)cc3c1=O)OC[C@@H]2C,≤ 0.97,≤ 0.97,1.9,1.9,3.9,≤ 0.97,3.9,3.9,1.3,2.5,> 95,74,inactive,,,,,,,0.2,
CCCCCCCCCCCCCCCCCCCC(=O)OCOC(=O)c1cn2c3c(c(N4CCN(C)CC4)c(F)cc3c1=O)OC[C@@H]2C,,,,,,,,,,,,,inactive,,,,,,,,growth inhibition (GI) [4]: inactive
CCCCCCCCCCCCCNC(=O)c1cn2c3c(c(N4CCN(C)CC4)c(F)cc3c1=O)OC[C@@H]2C,,,,,,,,,,> 10,> 95,5,inactive,,,,,,,,
CCCCCCCCCCCCCCCC(=O)OCOC(=O)c1cn2c3c(c(N4CCN(C)CC4)c(F)cc3c1=O)OC[C@@H]2C,,,,,,,,,,,,,inactive,,,,,,,,growth inhibition (GI) [4]: inactive
CCCCCCCCCCCC(=O)OCC(=O)N1CCN(c2cc3c(cc2F)c(=O)c(C(=O)O)cn3C2CC2)CC1,≤ 0.97,≤ 0.97,7.8,7.8,250,62.5,250,125,,,> 95,,inactive,3.9,1.9,500,125,250,62.5,49,MBC (Staphylococcus aureus [12]): 0.97 µM; MIC (Staphylococcus aureus [12]): 0.06 µM
CCCCCCCCNC(=O)c1cn2c3c(c(N4CCN(C)CC4)c(F)cc3c1=O)OC[C@@H]2C,31.2,31.2,31.2,31.2,250,31.2,500,125,,,> 95,,inactive,,,,,,,2.3,
